From ChEMBL document CHEMBL3414487, “Synthesis and biological activity of salinomycin conjugates with floxuridine” (Eur J Med Chem, 2015) come the findings set out here.

Values after ≈ are worked out from the molar mass of the structure shown.

In assay [1] the test system is Staphylococcus aureus. The experiment in a line: Antimicrobial activity against methicillin-resistant Staphylococcus aureus 573/12 after 18 hrs by two-fold serial microdilution method. Format: functional. As to conditions: 573/12, 18 h.
Assay [2] relates to Staphylococcus epidermidis. The experiment in a line: Antimicrobial activity against methicillin-resistant Staphylococcus epidermidis 469/11 after 18 hrs by two-fold serial microdilution method. The settings on record: 469/11, 18 h. Format: functional.
The test system of a further assay is HT-29. The assay can be described thus: Antiproliferative activity against human HT-29 cells assessed as growth inhibition after 72 hrs by SRB method. Format: functional, cell-based.
Assay [3] has as its system Staphylococcus aureus. The experiment in a line: Antimicrobial activity against Staphylococcus aureus […] 4163 after 18 hrs by two-fold serial microdilution method. Format: functional.
The subject of the next assay is LoVo. The assay can be described thus: Antiproliferative activity against human LoVo cells assessed as growth inhibition after 72 hrs by SRB method. Format: functional, cell-based.
The test system of assay [4] is Staphylococcus epidermidis. The experiment in a line: Antimicrobial activity against Staphylococcus epidermidis ATCC 12228 after 18 hrs by two-fold serial microdilution method. Format: functional. The settings on record: ATCC 12228, 18 h.
The subject of assay [5] is Staphylococcus epidermidis. The experiment in a line: Antimicrobial activity against methicillin-resistant Staphylococcus epidermidis 489/11 after 18 hrs by two-fold serial microdilution method. The settings on record: 489/11, 18 h. Format: functional.
Assay [6] concerns HL-60. The experiment in a line: Resistance index, ratio of IC50 for human HL60/Vinc cells to IC50 for human HL60 cells.
The nature of assay [7]: Antiproliferative activity against human LS180 cells assessed as growth inhibition after 72 hrs by SRB method. Format: functional, cell-based.
The nature of assay [8]: Selectivity index, ratio of IC50 for mouse BALB/3T3 cells to IC50 for human HL60/Vinc cells. Format: functional.
In assay [9] the test system is Staphylococcus aureus. The assay can be described thus: Antimicrobial activity against methicillin-resistant Staphylococcus aureus 456/11 after 18 hrs by two-fold serial microdilution method. Format: functional. The settings on record: 456/11, 18 h.
Assay [10] concerns Staphylococcus epidermidis. The assay can be described thus: Antimicrobial activity against methicillin-resistant Staphylococcus epidermidis 461/11 after 18 hrs by two-fold serial microdilution method. Format: functional. As to conditions: 461/11, 18 h.
Assay [11] deals with Staphylococcus aureus. The experiment in a line: Antimicrobial activity against methicillin-resistant Staphylococcus aureus 585/12 after 18 hrs by two-fold serial microdilution method. Format: functional. The settings on record: 585/12, 18 h.
For assay [12], the system named is Staphylococcus aureus. The experiment in a line: Antimicrobial activity against methicillin-resistant Staphylococcus aureus 514/11 after 18 hrs by two-fold serial microdilution method. As to conditions: 514/11, 18 h. Format: functional.
In assay [13] the test system is Staphylococcus epidermidis. The assay can be described thus: Antimicrobial activity against methicillin-resistant Staphylococcus epidermidis 459/11 after 18 hrs by two-fold serial microdilution method. Format: functional. As to conditions: 459/11, 18 h.
The subject of assay [14] is Staphylococcus epidermidis. The experiment in a line: Antimicrobial activity against methicillin-resistant Staphylococcus epidermidis 470/11 after 18 hrs by two-fold serial microdilution method. Format: functional. As to conditions: 470/11, 18 h.
The test system of assay [15] is Staphylococcus aureus. The experiment in a line: Antimicrobial activity against Staphylococcus aureus ATCC 29213 after 18 hrs by two-fold serial microdilution method. Format: functional. As to conditions: ATCC 29213, 18 h.
Assay [16] deals with Staphylococcus aureus. The assay can be described thus: Antimicrobial activity against methicillin-resistant Staphylococcus aureus 452/11 after 18 hrs by two-fold serial microdilution method. Format: functional. The settings on record: 452/11, 18 h.
The subject of assay [17] is Staphylococcus aureus. The experiment in a line: Antimicrobial activity against methicillin-resistant Staphylococcus aureus 537/12 after 18 hrs by two-fold serial microdilution method. Format: functional. As to conditions: 537/12, 18 h.
In assay [18] the test system is Staphylococcus aureus. The assay can be described thus: Antimicrobial activity against methicillin-resistant Staphylococcus aureus 462/11 after 18 hrs by two-fold serial microdilution method. Format: functional. As to conditions: 462/11, 18 h.
The test system of assay [19] is Staphylococcus epidermidis. The experiment in a line: Antimicrobial activity against methicillin-resistant Staphylococcus epidermidis 468/11 after 18 hrs by two-fold serial microdilution method. Format: functional. The settings on record: 468/11, 18 h.
Assay [20] has as its system Staphylococcus epidermidis. The experiment in a line: Antimicrobial activity against methicillin-resistant Staphylococcus epidermidis 460/11 after 18 hrs by two-fold serial microdilution method. The settings on record: 460/11, 18 h. Format: functional.
The nature of assay [21]: Antiproliferative activity against human HL60 cells assessed as growth inhibition after 72 hrs by MTT assay. Format: functional, cell-based. As to conditions: HL-60, 72 h.
Assay [22] concerns Staphylococcus aureus. The experiment in a line: Antimicrobial activity against Staphylococcus aureus ATCC 6538 after 18 hrs by two-fold serial microdilution method. Format: functional. The settings on record: ATCC 6538, 18 h.
Assay [23] is described as follows: Antiproliferative activity against human SW707 cells assessed as growth inhibition after 72 hrs by SRB method. Format: functional, cell-based.
In assay [24] the test system is Staphylococcus epidermidis. The experiment in a line: Antimicrobial activity against methicillin-resistant Staphylococcus epidermidis 466/11 after 18 hrs by two-fold serial microdilution method. Format: functional. As to conditions: 466/11, 18 h.
Assay [25] is described as follows: Selectivity index, ratio of IC50 for mouse BALB/3T3 cells to IC50 for human LoVo/DX cells. Format: functional.
Assay [26] in a line: Antiproliferative activity against human vincristine-resistant HL60/Vinc cells assessed as growth inhibition after 72 hrs by MTT assay. Format: functional. As to conditions: Homo sapiens, HL60/vinc, 72 h.
The subject of assay [27] is Staphylococcus aureus. The experiment in a line: Antimicrobial activity against methicillin-resistant Staphylococcus aureus 572/12 after 18 hrs by two-fold serial microdilution method. As to conditions: 572/12, 18 h. Format: functional.
Assay [28] can be described thus: Antiproliferative activity against human doxorubicin-resistant LoVo/DX cells assessed as growth inhibition after 72 hrs by SRB method. Format: functional, cell-based.
In assay [29] the test system is Staphylococcus epidermidis. The experiment in a line: Antimicrobial activity against methicillin-resistant Staphylococcus epidermidis 467/11 after 18 hrs by two-fold serial microdilution method. As to conditions: 467/11, 18 h. Format: functional.
Assay [30] has as its system Staphylococcus epidermidis. The experiment in a line: Antimicrobial activity against Staphylococcus epidermidis ATCC 35984 after 18 hrs by two-fold serial microdilution method. Format: functional. The settings on record: ATCC 35984, 18 h.
In assay [31] the test system is HL-60. The experiment in a line: Selectivity index, ratio of IC50 for mouse BALB/3T3 cells to IC50 for human HL60 cells. Format: functional.
Assay [32] has as its system Staphylococcus aureus. The assay can be described thus: Antimicrobial activity against Staphylococcus aureus ATCC 25923 after 18 hrs by two-fold serial microdilution method. Format: functional. The settings on record: ATCC 25923, 18 h.
Assay [33] has as its system Staphylococcus epidermidis. The assay can be described thus: Antimicrobial activity against methicillin-resistant Staphylococcus epidermidis 488/11 after 18 hrs by two-fold serial microdilution method. Format: functional. As to conditions: 488/11, 18 h.
The subject of assay [34] is Staphylococcus aureus. The experiment in a line: Antimicrobial activity against methicillin-resistant Staphylococcus aureus 522/12 after 18 hrs by two-fold serial microdilution method. Format: functional. The settings on record: 522/12, 18 h.
In another assay the test system is BALB/3T3. The experiment in a line: Antiproliferative activity against mouse BALB/3T3 cells assessed as growth inhibition after 72 hrs by SRB method. Format: cell-based. The settings on record: BALB/3T3, 72 h.
For assay [35], the system named is Staphylococcus aureus. The assay can be described thus: Antimicrobial activity against methicillin-resistant Staphylococcus aureus 586/12 after 18 hrs by two-fold serial microdilution method. Format: functional. As to conditions: 586/12, 18 h.

With `[N-]=[N+]=N[C@H]1C[C@H](n2cc(F)c(=O)[nH]c2=O)O[C@@H]1CO`, the minimum inhibitory concentration (MIC) with Staphylococcus aureus [1] is 7.38 µM (≈ 2 µg/mL); in assay [2], 3.69 µM (≈ 1 µg/mL); with Staphylococcus aureus [3], 3.69 µM (≈ 1 µg/mL); in assay [4] it was 1.85 µM (≈ 0.502 µg/mL); in [5] it was 3.69 µM (≈ 1 µg/mL); against Staphylococcus aureus [9], 3.69 µM (≈ 1 µg/mL). In addition, the MIC came to 1.85 µM (≈ 0.502 µg/mL) in [10]; 3.69 µM (≈ 1 µg/mL) in the assay with Staphylococcus aureus [11]; 3.69 µM (≈ 1 µg/mL) with Staphylococcus aureus [12]; 0.92 µM (≈ 0.25 µg/mL) in assay [13]; 0.92 µM (≈ 0.25 µg/mL) in [14]; 7.38 µM (≈ 2 µg/mL) in the assay on Staphylococcus aureus [15]. Moreover, the MIC in the assay with Staphylococcus aureus [16] was found to be 3.69 µM (≈ 1 µg/mL); in the assay on Staphylococcus aureus [17], 7.38 µM (≈ 2 µg/mL); against Staphylococcus aureus [18], 7.38 µM (≈ 2 µg/mL); in assay [19] it was 0.92 µM (≈ 0.25 µg/mL); in assay [20] it was 0.92 µM (≈ 0.25 µg/mL); in the assay with Staphylococcus aureus [22], 3.69 µM (≈ 1 µg/mL). The MIC in assay [24] stood at 0.46 µM (≈ 0.125 µg/mL); in the assay on Staphylococcus aureus [27], 3.69 µM (≈ 1 µg/mL); in assay [29], 0.92 µM (≈ 0.25 µg/mL); in [30], 7.38 µM (≈ 2 µg/mL); in the assay on Staphylococcus aureus [32] it was 3.69 µM (≈ 1 µg/mL); in assay [33], 0.92 µM (≈ 0.25 µg/mL). The minimal inhibitory concentration (MIC) against Staphylococcus aureus [34] amounted to 7.38 µM (≈ 2 µg/mL); against Staphylococcus aureus [35], 3.69 µM (≈ 1 µg/mL). In addition, the “inhibition (INH)” value with HT-29 was determined as 25%; in the assay on LoVo, 43%; in [7] it was 25%; in assay [23], 41%. Further, the “Ratio IC50” value in the assay on HL-60 [6] was 1.63. The “Selectivity Index” value in [8] is 0.33; in assay [25], 0.34; in the assay on HL-60 [31], 0.54. In addition, the IC50 was 180 µM in assay [21], 294 µM in assay [26], 290 µM in assay [28] and 97.3 µM in the assay on BALB/3T3.
Regarding `O=C(O)c1cn(C2CC2)c2cc(N3CCNCC3)c(F)cc2c1=O` [CIPROFLOXACIN], the MIC with Staphylococcus aureus [1] was 96.7 µM (≈ 32 µg/mL); in the assay with Staphylococcus aureus [3], 0.76 µM (≈ 0.252 µg/mL); in assay [4], 0.76 µM (≈ 0.252 µg/mL); in assay [5] it was 0.76 µM (≈ 0.252 µg/mL); in the assay on Staphylococcus aureus [9], 96.7 µM (≈ 32 µg/mL); in assay [10] it was 0.76 µM (≈ 0.252 µg/mL). Moreover, the minimal inhibitory concentration (MIC) against Staphylococcus aureus [12] worked out at 96.7 µM (≈ 32 µg/mL); in the assay with Staphylococcus aureus [16], 96.7 µM (≈ 32 µg/mL); with Staphylococcus aureus [22] it was 0.76 µM (≈ 0.252 µg/mL); against Staphylococcus aureus [34], 96.7 µM (≈ 32 µg/mL).
